Measurements taken from patent US20110257168A1, “DERIVATIVES OF OXABISPIDINE AS NEURONAL NICOTINIC ACETYLCHOLINE RECEPTOR LIGANDS” (Targacept, Inc., priority 2008, published 2011).
pKi: −log10 of the molar value. Where two headings read alike, the source gives them in different places.

Assays:
Human α7 = biological target: T1, Human α7 (Homo sapiens, UniProt P36544); assay: Competition binding to human α7 receptors in membrane preparations
T1 construct: host or cells: HEK cells co-expressing RIC3
Experimental: (§1) SH-EP1/human α4β2 (Eaton et al., 2003), SH-EP1/human α4β4 (Gentry et al., 2003), SH-EP1/α6β3β4α5 (Grinevich et al., 2005), TE671/RD and SH-SY5Y cell lines (obtained from Dr. Ron Lukas, Barrow Neurological Institute) were maintained in proliferative growth phase in Dulbecco's modified Eagle's medium (Gibco/BRL) with 10% horse serum (Gibco BRL), 5% fetal bovine serum (HyClone, Logan Utah), 1 mM sodium pyruvate, 4 mM L-glutamine. For maintenance of stable transfectants, the α4β2 and α4β4 cell media was supplemented with 0.25 mg/mL zeocin and 0.13 mg/mL hygromycin B. Selection was maintained for the α6β3β4α5 cells with 0.25 mg/mL of zeocin, 0.13 mg/mL of hygromycin B, 0.4 mg/mL of geneticin, and 0.2 mg/mL of blasticidin. HEK/human α7/RIC3 cells (obtained from J. Lindstrom, U. Pennsylvania) were maintained in proliferative growth phase in Dulbecco's modified Eagle's medium (Gibco/BRL) with 10% fetal bovine serum (HyClone, Logan Utah), 1 mM sodium pyruvate, 4 mM L-glutamine, 0.4 mg/mL geneticin; 0.2 mg/ml hygromycin B.
(§2) Preparation of membranes from rat tissues. Rat cortices were obtained from Analytical Biological Services, Incorporated (ABS, Wilmington, Del.). Tissues were dissected from female Sprague-Dawley rats, frozen and shipped on dry ice. Tissues were stored at −20° C. until needed for membrane preparation. Cortices from 10 rats were pooled and homogenized by Polytron (Kinematica GmbH, Switzerland) in 10 volumes (weight:volume) of ice-cold preparative buffer (KCl, 11 mM; KH2PO4, 6 mM; NaCl 137 mM; Na2HPO4 8 mM; HEPES (free acid), 20 mM; iodoacetamide, 5 mM; EDTA, 1.5 mM; 0.1 mM PMSF pH 7.4). The resulting homogenate was centrifuged at 40,000 g for 20 minutes at 4° C. and the resulting pellet was resuspended in 20 volumes of ice-cold water. After 60-minute incubation at 4° C., a new pellet was collected by centrifugation at 40,000 g for 20 minutes at 4° C. The final pellet was resuspended in preparative buffer and stored at −20° C. On the day of the assay, tissue was thawed, centrifuged at 40,000 g for 20 minutes and then resuspended in PBS (Dulbecco's Phosphate Buffered Saline, Life Technologies, pH 7.4) to a final concentration of 2-3 mg protein/mL. Protein concentrations were determined using the Pierce BCA Protein Assay kit (Pierce Biotechnology, Rockford, Ill.), with bovine serum albumin as the standard. Preparation of membranes from clonal cell lines. Cells were harvested in ice-cold PBS, pH 7.4, then homogenized with a polytron (Brinkmann Instruments, Westbury, N.Y.). Homogenates were centrifuged at 40,000 g for 20 minutes (4° C.). The pellet was resuspended in PBS and protein concentration determined using the Pierce BCA Protein Assay kit (Pierce Biotechnology, Rockford, Ill.).
(§3) Competition binding to receptors in membrane preparations. Binding to nicotinic receptors was assayed on membranes using standard methods adapted from published procedures (Lippiello and Fernandes, 1986; Davies et al., 1999). In brief, membranes were reconstituted from frozen stocks (approximately 0.2 mg protein) and incubated for 2 h on ice in […] assay buffer (PBS) in the presence of competitor compound (0.001 nM to […]) and radioligand. [^3H]-nicotine (L-(−)-[N-methyl-3H]-nicotine, 69.5 Ci/mmol, Perkin-Elmer Life Sciences) was used for human α4β2 binding studies. [^3H]-epibatidine (52 Ci/mmol, Perkin-Elmer Life Sciences) was used for binding studies at the other receptor subtypes. Incubation was terminated by rapid filtration on a multimanifold tissue harvester (Brandel, Gaithersburg, Md.) using GF/B filters presoaked in 0.33% polyethyleneimine (w/v) to reduce non-specific binding. Filters were washed 3 times and the radioactivity retained was determined by liquid scintillation counting.
(§4) Binding data analysis. Binding data were expressed as percent total control binding. Replicates for each point were averaged and plotted against the log of drug concentration. […]

human α4β2 = human α4β2 (Homo sapiens, UniProt P17787+P43681); assay: Competition binding to human α4β2 receptors in membrane preparations
Experimental: as §1, §2, §3, §4

male ICR mice = assay: Formalin test (2.5%) in mice; assay type: in vivo
Experimental: The formalin test in mice is a valid and reliable model of nociception and is sensitive for various classes of analgesic drugs. The noxious stimulus is an injection of dilute formalin (1% in saline) under the skin of the dorsal surface of the right hindpaw. The response is the amount of time the animals spend licking the injected paw. Two distinct periods of high licking activity can be identified, an early phase lasting the first 5 min and a late phase lasting from 20 to 30 min after the injection of formalin. See, Hunskaar et al., Pain, 1987, July; 30(1):103-14, incorporated by reference with regard to the test.
A formalin test was carried out in an open Plexiglas cage, with a mirror placed under the floor to allow an unobstructed view of the paws. Mice were allowed to acclimate for 15 min in the test cage before formalin injection. Each animal was injected with 20 μl of 2.5% formalin in the intraplantar region of the right hindpaw. Mice were then observed 0-5 min (Phase 1) and 20-45 min (Phase 2) post-formalin, and the amount of time spent (expressed in sec) licking the injected paw was recorded. Compound A or vehicle were injected s.c. 15 min before the formalin injection.
FIG. 1 illustrates the effects of Compound A in the formalin test (2.5%) in male ICR mice. As described, subject mice were pretreated with an s.c. injection of Compound A and 15 minutes later received formalin ipl. […] The lowest active dose was 3 mg/kg.

Rat α4β2 = biological target: T2, Rat α4β2 (Rattus norvegicus, UniProt P09483+P12390); assay: Competition binding to rat α4β2 receptors in membrane preparations
T2 construct: Preparation of membranes from rat tissues; Rat cortices were obtained from Analytical Biological Services; tissue Analytical Biological Services, Incorporated (ABS, Wilmington, Del.); host or cells: rat cortex membranes (female Sprague-Dawley)
Experimental: as §2, §3
(§5) Binding data analysis. Binding data were expressed as percent total control binding. Replicates for each point were averaged and plotted against the log of drug concentration. The IC50 (concentration of the compound that produces 50% inhibition of binding) was determined by least squares non-linear regression using GraphPad Prism software (GraphPAD, San Diego, Calif.). Ki was calculated using the Cheng-Prusoff equation (Cheng and Prusoff, 1973).

Rat α7 = biological target: T3, Rat α7 (Rattus norvegicus, UniProt Q05941); assay: Competition binding to rat α7 receptors in membrane preparations
T3 construct: Preparation of membranes from rat tissues; Rat cortices were obtained from Analytical Biological Services; tissue Analytical Biological Services, Incorporated (ABS, Wilmington, Del.); host or cells: rat brain membranes (only cortex is described)
Experimental: as §2, §3, §5

[1] = membranes, [3H]-nicotine competition, Ki by Cheng-Prusoff, read-out: human α4β2 Ki
[2] = membranes, [3H]-epibatidine competition, Ki by Cheng-Prusoff, read-out: Human α7 Ki
[3] = membranes, [3H]-epibatidine competition, Ki by Cheng-Prusoff, read-out: Rat α7 Ki

Compound | pKi (Human α7) | pKi (human α4β2; [1]) | nociceptive behavior (time licking the injected paw), Phase 1 (male ICR mice; 0-5 min post-formalin, s.c. 15 min before formalin, F(1,35)=41.8, P<0.0001) | nociceptive behavior (time licking the injected paw), Phase 2 (male ICR mice; 20-45 min post-formalin, s.c. 15 min before formalin, F(1,35)=24.8, P<0.0001) | lowest active dose (male ICR mice; formalin test, s.c. administration) [mg/kg] | effects in formalin test in presence of mecamylamine (male ICR mice; mecamylamine 2 mg/kg) | pKi (Rat α4β2) | pKi (Rat α7) | pKi (Human α7; [2]) | pKi (human α4β2) | pKi (Rat α4β2; membranes, [3H]-epibatidine competition, Ki by Cheng-Prusoff, read-out: Rat α4β2 Ki) | pKi (Rat α7; [3])
Fc1cncc(N2CC3CNCC(C2)O3)c1 [Compound A, 3-(5-fluoropyridin-3-yl)-9-oxa-3,7-diazabicyclo[3.3.1]nonane] | 7.12 | 8.74 | significantly reduced | significantly reduced | 3 | blocked | 8.89 | 7.44 | – | – | – | –
Clc1cc(N2CC3CNCC(C2)O3)cnc1Cl [3-(5,6-dichloropyridin-3-yl)-9-oxa-3,7-diazabicyclo[3.3.1]nonane] | – | – | – | – | – | – | – | – | 7.41 | 9.52 | 9.15 | 7.08
COc1cncc(N2CC3CNCC(C2)O3)c1 [3-(5-methoxypyridin-3-yl)-9-oxa-3,7-diazabicyclo[3.3.1]nonane] | – | 9.05 | – | – | – | – | 8.72 | – | 6.46 | – | – | 6.25
